Where a name gives a salt, the structure may show the parent alone. Read-outs that look alike come from different tables or passages of the source. Each block holds one molecule with its values, some of them ahead of it.
What was measured:
5-lipoxygenase = target: T1, 5-lipoxygenase (Rattus norvegicus, UniProt P12527); experiment: inhibiting action upon leukocyte 5-lipoxygenase (RBL-1 cells as enzyme source); format: biochemical
T1 construct: leukemic basophilic granulocyte cells of rats (RBL-1, ATCC No. CRL 1378) were used as a 5-lipoxygenase enzyme source; host or cells: RBL-1 (rat basophilic leukemia cells)
T1 sequence (P12527 1-673): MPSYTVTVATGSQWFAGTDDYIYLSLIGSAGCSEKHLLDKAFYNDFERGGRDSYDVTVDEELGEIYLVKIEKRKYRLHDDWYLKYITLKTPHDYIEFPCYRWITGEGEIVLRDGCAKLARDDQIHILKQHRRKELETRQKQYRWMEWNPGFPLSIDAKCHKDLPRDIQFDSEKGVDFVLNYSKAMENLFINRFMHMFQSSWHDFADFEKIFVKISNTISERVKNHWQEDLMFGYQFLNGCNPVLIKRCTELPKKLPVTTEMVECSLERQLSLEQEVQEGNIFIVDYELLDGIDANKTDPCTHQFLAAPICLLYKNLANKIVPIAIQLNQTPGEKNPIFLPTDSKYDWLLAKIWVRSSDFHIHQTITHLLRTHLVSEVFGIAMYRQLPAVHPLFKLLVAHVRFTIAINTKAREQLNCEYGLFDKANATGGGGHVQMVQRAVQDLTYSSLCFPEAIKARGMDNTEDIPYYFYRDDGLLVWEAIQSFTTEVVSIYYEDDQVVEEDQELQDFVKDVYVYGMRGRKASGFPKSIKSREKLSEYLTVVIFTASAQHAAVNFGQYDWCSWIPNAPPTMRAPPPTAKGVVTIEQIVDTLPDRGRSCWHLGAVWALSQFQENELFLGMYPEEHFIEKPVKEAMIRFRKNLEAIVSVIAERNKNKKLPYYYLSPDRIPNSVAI
Procedure: (§1) An inhibiting action of 2-n-heptyl-4-hydroxyquinoline-N-oxide upon lipoxygenase was determined by in vitro test according to the following procesure:
(b) Procedure for determining the inhibiting action upon leukocyte 5-lipoxygenase:
Determination was carried out according to modified B. A. Jakschik, et al, procedure (Biochem. Biophys. Res. Commun. 95, 103 (1980)). That is, leukemic basophilic granulocyte cells of rats (RBL-1, ATCC No. CRL 1378) were used as a 5-lipoxygenase enzyme source. The cells and 2-n-heptyl-4-hydroxyquinoline-N-oxide were brought into contact with each other in a 0.07 M tris hydrochloric acid buffer solution in the presence of 0.7 mM calcium chloride at 37° C. for 5 minutes, and then 20 μM of [^14 C]-arachidonic acid was added thereto. The mixture was incubated at 37° C. for 5 minutes. The reaction product was extracted with ethyl acetate/methanol/0.2M citric acid (30/4/1), and then separated by thin layer chromatography (developing solvent: petroleum ether/ethyl ether/acetic acid: 50/50/1). Spots of 5-hydroxy-[…]-eicosatetraenoic acid in the product were scraped off and ^14 C was measured by a liquid scintillation counter.
(§2) Inhibiting actions of compounds in Table 2 upon lipoxygenase were determined in the same manner as in Test Example 1.

[1] = tested on: airway contraction reaction of passively sensitized guinea pigs; experiment: suppressing action upon anaphylactic airway contraction reaction of passively sensitized guinea pigs; format: in vivo, guinea pig; conditions: 10 mg/kg P.O. one hour before antigen EWA (1 mg/kg); 6 guinea pigs vs 18 control
Procedure: Suppressing action of 2-n-heptyl-4-hydroxyquinoline-N-oxide upon the airway contraction reaction of passively sensitized guinea pigs was determined according to the following procedure:
Anaphylactic airway contraction reaction of passively sensitized guinea pigs by antigen administration was determined according to modified Konzett and Rossler procedure (Arch. exp. Path. Pharmakol., 195, 71 (1940)). Anti-EWA guinea pig serum (1 ml/animal) was intraperitoneally administered into normal guinea pigs to make the animals passively sensitized, and 24 hours thereafter, a tracheal cannule was inserted and fixed to the guinea pig under urethane anesthesia. An artificial respirator and a bronchospasm transducer were connected to the cannule. After the spontaneous respiration was stopped by intravenous injection of 10 mg/kg of gallamine triethiodide, 1 mg/kg of EWA was injected into the jugular vein to cause anaphylactic airway contraction, and the volume of air overflow from the tracheal cannule sideway was recorded on a polygraph through the transducer. After the end of measurement, the trachea was completely blockaded. The state of complete blockade was regarded as a maximum contraction, and the results were given in percentage to the maximum contraction.

12-lipoxygenase = target: T2, 12-lipoxygenase (Bos taurus, UniProt F1MFA8); experiment: inhibiting action upon blood platelet 12-lipoxygenase; format: biochemical, bovine; conditions: for inhibition at 1000 µM: pH 7.4, with 1,000 μM of each compound, read-out: 12-lipoxygenase, inhibiting ratio
T2 construct: a preparation prepared from bovine blood platelets was used as an enzyme source; from tissue; host or cells: bovine blood platelets
T2 sequence (F1MFA8 1-663): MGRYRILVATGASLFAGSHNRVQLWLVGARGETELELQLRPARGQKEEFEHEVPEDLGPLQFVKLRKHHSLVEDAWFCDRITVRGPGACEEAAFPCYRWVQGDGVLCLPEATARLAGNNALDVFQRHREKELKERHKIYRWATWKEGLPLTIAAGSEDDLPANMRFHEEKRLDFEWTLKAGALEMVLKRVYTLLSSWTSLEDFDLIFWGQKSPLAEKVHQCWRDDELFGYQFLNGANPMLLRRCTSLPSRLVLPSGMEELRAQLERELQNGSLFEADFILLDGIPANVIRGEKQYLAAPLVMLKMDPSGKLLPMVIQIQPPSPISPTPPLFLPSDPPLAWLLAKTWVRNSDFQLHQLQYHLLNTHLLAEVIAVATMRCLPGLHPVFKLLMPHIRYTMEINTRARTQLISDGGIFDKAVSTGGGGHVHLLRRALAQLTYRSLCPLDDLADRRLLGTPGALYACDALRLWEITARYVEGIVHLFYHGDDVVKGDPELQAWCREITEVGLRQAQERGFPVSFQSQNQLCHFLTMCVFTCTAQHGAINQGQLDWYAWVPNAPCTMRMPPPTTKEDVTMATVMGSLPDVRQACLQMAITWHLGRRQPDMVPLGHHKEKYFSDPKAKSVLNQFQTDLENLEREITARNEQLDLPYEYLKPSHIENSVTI
Procedure: as §1
(a) Procedure for determining the inhibiting action upon blood platelet 12-lipoxygenase:
Determination was carried out according to D. H. Nugtern, et al, procedure (Biochem. Biophys. Acta, 380, 299 (1975)). That is, a preparation prepared from bovine blood platelets was used as an enzyme source. The blood platelet lipoxygenase preparation and 2-n-heptyl-4-hydroxyguinoline-N-oxide were brought into contact with each other in a 0.01M tris hydrochloric acid buffer solution (pH 7.4) at 30° C. for 5 minutes in advance, and then 35 μM of [^14 C]arachidonic acid was added thereto. The mixture was incubated at 30° C. for 10 minutes. The reaction product was extracted with ethyl acetate/methanol/0.2M citric acid (30/4/1), and then separated by thin layer chromatography (developing solvent system: ligroin/ethyl ether/acetic acid: (50/50/1). The spot of 12-hydroxy-5,8,10,14-eicosatetraenoic acid in the product was scraped off and ^14 C was measured by a liquid scintillation counter.
as §2

SRS-A production = experiment: suppressing action upon production of SRS-A (lung pieces of actively sensitized guinea pigs, EWA challenge); format: cell-based, guinea pig; conditions: for inhibition at 8.3 µg/mL: 8.3 μg/ml; for suppression of the production of SRS-A (in words): Table 4, 8.3 μg/ml
Procedure: An inhibiting action of 2-n-heptyl-4-hydroxyquinoline-N-oxide upon SRS-A production was determined according to the following procedure:
According to Watanabe-Kohno and Parker procedure (J. Immunol., 125, 946 (1980)), 20 mg of egg white albumin (hereinafter abbreviated as EWA), was dissolved in 10 ml of physiological saline solution, and the resulting solution was added to an equal volume of Freund's complete adjuvant to prepare an emulsion. Then, 1 ml of the emulsion was administered subcutaneously in the plantar surface of the hind paws of guinea pigs to make the animals actively sensitized. Three to five weeks thereafter, the guinea pigs were sacrified by exsanguination from the carotid artery, and the Tyrode's solution was perfused through right cardiac ventricle to wash lungs and remove blood. Then, the lungs were isolated and cut to pieces of about 2 mm size in the chilled Tyrode's solution with scissors, filtered through 2 sheets of gauze. Then, 400 mg of the fragments were distributed into individual test tubes containing 5 ml of the Tyrode's solution. The lung pieces were preincubated at 37° C. for 10 minutes, 0.5 ml of a test solution at various concentrations was added thereto, and the incubation was continued for 10 minutes at 37° C. Then, 0.5 ml of EWA (20 mg/ml) was added thereto, and the mixture was further incubated for 15 minutes. The reaction was discontinued by ice-cooling the mixture, and then the mixture was filtered through a sheet of gauze.
(§3) The amount of SRS-A in the filtrate was bioassayed using guinea pig ileum according to the Magnus procedure. That is, the ileums were suspended in 10 ml of organ bath filled with the Tyrode's solution (31 ±1° C., aerated with 95% O2 +5% CO2 gas mixture), and their movements were recorded on a recorder with a pen (Hitachi: QPD54) through an isotonic transducer (Nihon Koden: JD112S). After the ileum contraction reaction by 10^-7 M histamine was stabilized, 1 ml of the filtrate was added to the organ bath in the presence of 5 x 10^-7 M atropine and 10^-6 M tripelennamine to cause the ileum contraction reaction. It was known that the ileum contraction reaction by SRS-A was increased by repetitive applications and, therefore, after the reaction by at least 5 applications of the SRS-A prepared in advance became constant, control filtrate and a filtrate containing a test solution were used.
Suppressing actions of 2-n-propyl-4-hydroxyquinoline-N-oxide and 2-n-undecyl-4-hydroxyquinoline-N-oxide upon production of SRS-A were determined in the same manner as in Test Example 3.

SRS-A = experiment: guinea pig ileum contraction reaction by SRS-A (Magnus procedure); conditions: 3×10^-7 M
Procedure: as §3

[2] = Cavia porcellus, read-out: Suppressing ratio, production of SRS-A
[3] = Table 2, same manner as Test Example 1

Structure (SMILES): CCCCCCCc1cc(O)c2ccccc2[n+]1[O-] [2-n-heptyl-4-hydroxyquinoline-N-oxide]
IC50 (5-lipoxygenase): 0.15 µM
inhibiting action upon 5-lipoxygenase compared with BW-755C (5-lipoxygenase; in words): much better in the present compound
suppression of airway contraction reaction (increase in air overflow) [1]: significantly suppressed
IC50 (12-lipoxygenase): 30 µM
inhibiting action upon 12-lipoxygenase compared with BW-755C (12-lipoxygenase; in words): almost equal to that of known compound
formation of SRS-A (in words) (SRS-A production; 4, 40, and 400 μg/ml): suppressed by application of 4, 40, and 400 μg/ml of the present compound in a dose dependent manner
inhibition at 4 µg/mL (SRS-A production; [2]): 26.2 ± 4.2%
inhibition at 40 µg/mL (SRS-A production; [2]): 60.1 ± 3.7%
inhibition at 400 µg/mL (SRS-A production; [2]): 84.3 ± 1.1%
intensity of SRS-A suppression compared with BW-755C (SRS-A production; in words, measured at the same time): obviously better than the suppressing action of BW-755C

Structure (SMILES): CCCCCCCCCCCc1cc(O)c2ccccc2[n+]1[O-] [2-n-undecyl-4-hydroxyquinoline-N-oxide]
IC50 (5-lipoxygenase; [3]): 0.2 µM
inhibition at 1000 µM (12-lipoxygenase; 10 min): 55.7%
inhibition at 8.3 µg/mL (SRS-A production; [2]): 17.5%
suppression of the production of SRS-A (in words) (SRS-A production): suppress the production of SRS-A

Structure (SMILES): CCCc1c(OCC(O)COc2ccc3c(=O)cc(C(=O)O)oc3c2CCC)ccc(C(C)=O)c1O (centres unmarked) [FPL-55712]
suppression of ileum contraction reaction by SRS-A (SRS-A): almost completely suppressed

More lines, main results first:

IC50 (5-lipoxygenase; [3]): 1 µM
inhibition at 1000 µM (12-lipoxygenase; 10 min): 56%
Structure (SMILES): CCCCCCCCCCCCCCCc1cc(O)c2ccccc2[n+]1[O-] [2-n-pentadecyl-4-hydro-xy-quinoline-N--oxide]

IC50 (5-lipoxygenase; [3]): 110 µM
inhibition at 1000 µM (12-lipoxygenase; 10 min): 46.3%
Structure (SMILES): CCCc1cc(O)c2ccccc2[n+]1[O-] [2-n-propyl-4-hydroxyquinoline-N-oxide]
inhibition at 8.3 µg/mL (SRS-A production; [2]): 34.1%
suppression of the production of SRS-A (in words) (SRS-A production): suppress the production of SRS-A

IC50 (12-lipoxygenase; bovine blood platelet preparation, 35 μM [14C]arachidonic acid, pH 7.4, 30° C., 10 min, read-out: IC50, 12-lipoxygenase): 25 µM
Structure (SMILES): NC1=NN(c2cccc(C(F)(F)F)c2)CC1 [BW-755C, 3-amino-1-(3-trifluoromethylphenyl)-2-pyrazoline hydrochloride, reference compound]
inhibition at 40 µg/mL (SRS-A production; Cavia porcellus, 40 μg/ml, read-out: Suppressing ratio, production of SRS-A): 23.8 ± 8.8%

Reference: US4618613A, “Preventive and healing composition for diseases due to lipoxygenase metabolic products” (Kyowa Hakko Kogyo Company, Ltd., priority 1983, dated 1986)
